From US6222035A, “[1,2,4] triazolo [1,5-C] pyrimidine derivatives” (Kyowa Hakko Kogyo Co., Ltd., priority 1997, dated 2001) come the findings set out here.

Structures can show the parent of a compound that is named as a salt.

Experiment [1] deals with CGS 21680-induced catalepsy in mice. The experiment is described as follows: Activity on CGS 21680-induced Catalepsy. The class given is in vivo, mouse (male ddY). The following applies: 10 mg/kg oral; for Total score (catalepsy): 10 animals, maximum 50 points, control 48; for Number of Animals showing remission: catalepsy score 4 points or less in 10 cases; for inhibition in vivo at 10 mg/kg: Mus musculus, CGS 21680-induced catalepsy, read-out: Remission ratio (%). In short, it runs like this: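 Male ddY mice (5 weeks, 10 per group) received CGS 21680 10 μg/20 μl intracerebroventricularly; test compounds given orally at 10 mg/kg in 0.3% Tween 80 suspension. Catalepsy scored 1 h after dosing on a 4.5 cm bar; total group score (maximum 50) compared with control; ≤4 per animal counted as remission.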

The test system of experiment [2] is immobility time in forced swimming of mice. The experiment is described as follows: Forced Swimming Method (measurement of immobility time). The following applies: 10 mg/kg oral, Steel-test vs solvent control. It counts as in vivo, mouse (male ddY). On the procedure:
Forced Swimming Method (measurement of immobility time)
Ten animals per group of ddY male mice (21 to 26 g in body weight, Japan SLC) were used as the experimental animal. During the preliminary feeding period, they were allowed to have feed and water freely in an animal room of a room temperature of 23±1° C. and a humidity of 55±5%. […] The drugs to be tested were suspended in a 0.3% Tween 80 solution and orally administered one hour before the test. In the negative control group, 10 ml/kg of the 0.3% Tween 80 solution alone was orally administered. Measurement of immobility time was carried out in accordance with the method of Porsolt [Arch. int Pharmacodyn., 229: 327-336 (1977)]. That is, a cylindrical transparent acrylic water tank (10 cm in diameter and 25 cm in height) was filled with 9 cm in depth of water having a temperature of 23±1° C., and mice were forced to swim for 6 minutes. When mice are put into water, they immediately start to swim trying to escape from the tank, but the motion gradually decreases 1 to 2 minutes thereafter. […] In order to reduce effects of daily rhythm, the test was carried out by using 5 of the 10 animals per group in the morning, and the remaining 5 animals in the afternoon. Further, measurement of immobility time was carried out by observing 2 animals at the same time and by not telling the observers distinctions about the solvent-administered group and doses of administered test drugs. Statistical analysis of the results was carried out by a multiple comparison test of the solvent-administered control group and each of the test drug-administered groups by Steel-test.

A further experiment concerns the target T1, adenosine A2A receptor (Rattus norvegicus, UniProt P30543).
T1 construct: from tissue; host or cells: rat corpus striatum, washed membrane suspension
The experiment is described as follows: Adenosine receptor binding activity (adenosine A2A receptor binding test), 3H-CGS 21680 binding. The following applies: 2 h, read-out: A2A receptor inhibition ratio (%); for inhibition at 0.1 µM: 10^-7 M. In a few lines: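 Rat corpus striatum membranes (5 mg wet tissue/mL in 50 mM Tris-HCl pH 7.7, 10 mM MgCl2, adenosine deaminase) incubated with 4.0 nM 3H-CGS 21680 and test compound for 120 min at 25 °C, then filtered and counted. Nonspecific binding defined with 100 μM CPA; % inhibition of specific binding calculated.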

For experiment [3], the system named is common marmoset MPTP-treated Parkinson's disease model. The experiment is described as follows: Activity in a Parkinson's Disease Model (common marmoset treated with MPTP). The class given is in vivo.
For experiment [4], the system named is learned helplessness model in rats. The experiment is described as follows: Activity in Learned Helplessness (LH) Model. The class given is in vivo, rat (male SD). Particulars: 5.0 mg/kg po, electric shock (IES) loaded, Average % ± SE. On the procedure:
Activity in Learned Helplessness (LH) Model
As experimental animals, 10 to 15 animals per group of SD male rats (220 to 320 g in body weight, 7 week age, Charles River Japan, Atsugi) were used. During the preliminary feeding period, they were allowed to have feed (CRF-1, Oriental Yeast, Tokyo) and water (tap water) freely in an animal room at a room temperature of 22 to 24° C. and a humidity of 50 to 60%. The test compound was orally administered in a dose of 2 ml/kg and 1 hour before FR 1 (fixed ratio schedule 1: repetition of fixed trial conditions) on the second day of the test.
2) Preparation of Learned Helplessness Model
A shuttle box apparatus (TK-401S; manufactured by UNICOM, Chiba) was used as the learning test apparatus. […]
On the second day, a shuttle box test was carried out by slightly modifying the method of Maier et al. [J. Comp. […] The escape reaction was judged success when both of the two escape times in FR 2 were less than 10 seconds, and the escape response was calculated by the following formula: "the number of trials of successful escape/15×100=escape response (%)" Further, migration in the box other than the escape reaction observed during a period between trials (resting time) was used as an index of psychomotor stimulant action by calculating "total number of migration in the box/15×100=intertrial response (%)" […]

T1 sequence (P30543 whole entry): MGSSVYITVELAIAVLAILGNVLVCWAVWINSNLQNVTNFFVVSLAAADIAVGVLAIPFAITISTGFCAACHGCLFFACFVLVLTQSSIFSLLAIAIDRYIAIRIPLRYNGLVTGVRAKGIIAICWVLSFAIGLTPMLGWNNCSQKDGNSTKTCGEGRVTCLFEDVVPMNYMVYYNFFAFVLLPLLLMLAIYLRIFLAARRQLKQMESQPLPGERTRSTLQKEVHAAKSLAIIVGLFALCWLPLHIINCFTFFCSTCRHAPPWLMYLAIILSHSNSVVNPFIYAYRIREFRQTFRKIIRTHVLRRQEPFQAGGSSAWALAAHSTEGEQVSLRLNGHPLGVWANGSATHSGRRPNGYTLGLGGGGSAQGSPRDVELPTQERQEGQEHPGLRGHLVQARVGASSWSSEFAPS

As for `Nc1nc(N2CCN(CC#Cc3ccccc3)CC2)cc2nc(-c3ccco3)nn12` [Compound 89, 5-Amino-2-(2-furyl)-7-(4-(3-phenylpropargyl)piperazinyl)[1,2,4]triazolo[1,5-c]pyrimidine hydrochloride], in experiment [1], the “Total score (catalepsy)” value was determined as 15, the “Number of Animals showing remission” value worked out at 10 and the inhibition in vivo at 10 mg/kg came to 68%. The Immobility time-shortening activity result in experiment [2] is “Significant immobility time-shortening activity was observed”. At adenosine A2A receptor, the inhibition at 0.1 µM was 52%.

On to `Nc1nc(N2CCN(CCCc3ccccc3)CC2)cc2nc(-c3ccco3)nn12` [Compound 63, 5-Amino-2-(2-furyl)-7-[4-(3-phenylpropyl)piperazinyl][1,2,4]triazolor[1,5-c]pyrimidine], for which, in experiment [1], the “Total score (catalepsy)” value came to 7, the “Number of Animals showing remission” value was found to be 10 and the inhibition in vivo at 10 mg/kg is 84%. The “Total spontaneous motor count” value in experiment [3] (FIG. 2, common marmoset treated with MPTP) is listed as “increase”. Further, in experiment [3] (total Parkinson's disease symptom score and locomotor count vs vehicle), the “Efficacy in the common marmoset MPTP-treated Parkinson's disease model” value is reported as “effective”. Also, the inhibition at 0.1 µM on adenosine A2A receptor was 82%. Besides, at adenosine A2A receptor (10^-8 M), the inhibition at 0.01 µM was determined as 31%.

On to `CC(C)NC(=O)c1cnc(N)n2nc(-c3ccco3)nc12` [Compound 165, 5-Amino-2-(2-furyl)-8-isopropylcarbamoyl[1,2,4]triazolo[1,5-c]pyrimidine], for which, in experiment [1], the “Total score (catalepsy)” value was 13, the “Number of Animals showing remission” value is recorded as 9 and the inhibition in vivo at 10 mg/kg came to 74%. In addition, the Immobility time-shortening activity result in experiment [2] was “Significant immobility time-shortening activity was observed”. In addition, the inhibition at 0.1 µM at adenosine A2A receptor is 103%.

For `Nc1nc(N2CCN(C/C=C/c3ccccc3)CC2)cc2nc(-c3ccco3)nn12` [Compound 88, 5-Amino-7-(4-trans-cinnamylpiperazinyl)-2-(2-furyl)[1,2,4]triazolo[1,5-c]pyrimidine], in experiment [1], the “Total score (catalepsy)” value stood at 0, the “Number of Animals showing remission” value came to 10 and the inhibition in vivo at 10 mg/kg was 98%. For the same compound, the Immobility time-shortening activity result in experiment [2] is recorded as “Significant immobility time-shortening activity was observed”. On adenosine A2A receptor, the inhibition at 0.1 µM came to 57%.

As for `CNC(=O)c1cnc(N)n2nc(-c3ccco3)nc12` [Compound 167, 5-Amino-2-(2-furyl)-8-methylcarbamoyl[1,2,4]triazolo[1,5-c]pyrimidine], in experiment [1], the “Total score (catalepsy)” value is listed as 9, the “Number of Animals showing remission” value came to 10 and the inhibition in vivo at 10 mg/kg is 82%. In addition, the Immobility time-shortening activity result in experiment [2] is “Significant immobility time-shortening activity was observed”. Further, at adenosine A2A receptor, the inhibition at 0.1 µM amounted to 90%.

For `Nc1nc(N2CCN(C(=O)c3ccccc3)CC2)cc2nc(-c3ccco3)nn12` [Compound 45, 5-Amino-7-(4-benzoylpiperazinyl)-2-(2-furyl)[1,2,4]triazolo[1,5-c]pyrimidine], the Intertrial response in experiment [4] came out at 6.7 ± 3.8%. The Escape response in experiment [4] (**: p < 0.01 vs loaded control) worked out at 64 ± 9.8%.
